Legend:
[1] = molecular target: BTK protein (Mus musculus (Mouse), UniProt P35991); experiment: Detection of BTK protein degradation in spleen of mice; type: in vivo; conditions: po, 72 h, female ICR mice, 3 consecutive days of intragastric administration, read-out: DD50 value of compounds on BTK protein degradation in spleen of mice
Protocol: Female ICR mice, 6-8 weeks old, were purchased from BEIJING VITAL RIVER LABORATORY ANIMAL TECHNOLOGY CO., LTD, and the experiment was started after 3 days of adaptation. After 3 consecutive days of intragastric administration of different doses of the compound, the spleen of mice was taken, the spleen cells were collected, and RIPA lysis buffer (Beyotime, Cat. P0013B) was added. The cells were lysed on ice for 15 minutes, and centrifuged at 12000 rpm at 4° C. for 10 minutes. The protein sample of the supernatant was collected, and the protein was quantified by using the BCA kit (Beyotime, Cat. P0009), and then the protein was diluted to 0.25 mg/mL. The expressions of BTK (CST, Cat. 8547S) and the internal reference β-actin (CST, Cat. 3700S) were detected using a fully automated western blot quantitative analyzer (Proteinsimple). The expression level of BTK relative to the internal reference was calculated using Compass software, and the DD50 value was calculated using Origen9.2 software according to formula (4). Specifically, the BTKadministration denoted the expression level of BTK in administration groups at different doses, and the BTKvehicle denoted the expression level of BTK in the vehicle control group. BTK %=BTKadministration/BTKvehicle×100 formula (4)

[2] = test system: SU-DHL-6 cells; experiment: Inhibition of cell proliferation, SU-DHL-6 cells (Cell Viability Assay, 72 h); type: cell-based; conditions: Homo sapiens
Protocol: SU-DHL-4, Mino, and SU-DHL-6 cells, in the culture medium of RPMI1640+10% FBS, were cultured in an incubator at 37° C. under 5% CO2. Cells were plated in a 96-well plate. Specifically, SU-DHL-4 cells were at 20000/well, Mino and SU-DHL-6 cells were at 5000/well, with 90 μL/well. 10 μL of the compounds at different concentrations were added to each well. There were 3 replicate wells for each concentration, and the last column, added with DMSO, was used as a vehicle control group. The cultures were continued for 72 hours at 37° C. under 5% CO2. After 72 hours, 100 μL of detection reagent (Cell Viability Assay, Promega, G7573) was added to each well, and the cultures were uniformly mixed for 2 minutes, and incubated at room temperature for 10 minutes. The fluorescence signal value was measured with a microplate reader (PHERAstar FSX). The IC50 value of the compound on cell proliferation inhibition was calculated using Origin 9.2 software, and the inhibition rate at the highest concentration of the compound (Max inhi. %) was calculated according to formula (1). Max inhi. %=(1-T72 administration/T72 vehicle)×100 Formula (1).

[3] = test system: SU-DHL-4 cells; experiment: Inhibition of cell proliferation, SU-DHL-4 cells (Cell Viability Assay, 72 h); type: cell-based, human; conditions: Homo sapiens
Outline: (§1)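 RPMI1640 + 10% FBS cultures seeded at 20000/well (SU-DHL-4) or 5000/well (Mino, SU-DHL-6), exposed to compound dilutions in triplicate for 72 h at 37 °C, 5% CO2, DMSO vehicle control. Viability read by luminescent reagent; IC50 from dose-response and Max inhi. % = (1 − T72 treated/T72 vehicle)×100 at top concentration.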

[4] = Pharmacokinetic experiment in rats (i.g. vehicle DMSO/Solutol/PEG-400/SBE-β-CD); type: in vivo; conditions: Sprague-Dawley (SD), rat, plasma, po, male SD rats; for bioavailability: i.g. 20 mg/kg (DMSO/Solutol/PEG-400/SBE-β-CD) vs i.v. 5 mg/kg; for AUC(0-t): i.g. 20 mg/kg, vehicle 5% DMSO + 5% Solutol + 30% PEG-400 + 60% (20%SBE-β-CD)
Protocol: (§2) Objective: In this experiment, a single dose of each test compound was administered to SD rats intravenously and intragastrically, the concentrations of the test compound in plasma of rats were measured, and the pharmacokinetic characteristics and bioavailability of the test compound in rats were evaluated.
Experimental animals: Male SD rats, 200-250 g, 6-8 weeks old, 6 rats/compound. The experimental animals were purchased from CHENGDU DOSSY EXPERIMENTAL ANIMALS CO., LTD.
(§3) Experimental method: On the day of the experiment, 6 SD rats were randomly grouped according to their body weight. The animals were fasted with water available for 12 to 14 hours one day before the administration of a test compound, and were fed 4 hours after the administration.
Sampling: Before and after the administration, 0.1 mL of blood was taken from the orbit of the rats under isoflurane anesthesia, and placed in an EDTAK2 centrifuge tube. Centrifugation was carried out at 5000 rpm at 4° C. for 10 min and the plasma was collected.
Time points for plasma collection in G1 group: 0, 5 min, 15 min, 30 min, 1 h, 2 h, 4 h, 6 h, 8 h, and 24 h.
Time points for plasma collection in G2 group: 0, 15 min, 30 min, 1 h, 2 h, 4 h, 6 h, 8 h, and 24 h.
(§4) Before analysis and detection, all samples were stored at −80° C. The samples were analyzed quantitatively by LC-MS/MS.

[5] = test system: OCI-LY10 cells; experiment: Inhibition of cell proliferation, OCI-LY10 cells (Cell Viability Assay, 72 h); type: cell-based; conditions: Homo sapiens
Protocol: (§5) OCI-LY10 and TMD-8 cells, in the culture medium of RPMI1640+10% FBS, were cultured in an incubator at 37° C. under 5% CO2. Cells were plated in a 96-well plate. Specifically, OCI-LY10 cells were at 10000/well, and TMD-8 cells were at 8000/well, with 90 μL/well. These cells were cultured at 37° C. under 5% CO2 overnight. On the next day, 10 μL of the compounds at different concentrations were added to each well. There were 3 replicate wells for each concentration, and the last column, added with DMSO, was used as a vehicle control group. The cultures were continued for 72 hours at 37° C. under 5% CO2. After 72 hours, 50 μL of detection reagent (Cell Viability Assay, Promega, G7573) was added to each well, and the cultures were uniformly mixed for 2 minutes, and incubated at room temperature for 10 minutes. The fluorescence signal value was measured with an Envision2104 plate reader (PerkinElmer). The inhibition rate was calculated using formula (2), wherein RLUcompound was the readout of the drug treated group, RLUcontrol was the average value of the vehicle control group, and RLUblank was the average value of the cell-free wells. The IC50 value was calculated using GraphPad Prism software. IR (%)=(1−(RLUcompound-RLUblank)/(RLUcontrol-RLUblank))*100% formula (2)

[6] = test system: Mino cells; experiment: Inhibition of cell proliferation, Mino cells (Cell Viability Assay, 72 h); type: cell-based, human; conditions: Homo sapiens
Outline: as §1

[7] = test system: TMD-8 cells; experiment: Inhibition of cell proliferation, TMD-8 cells (Cell Viability Assay, 72 h); type: cell-based; conditions: Homo sapiens, TMD8
Protocol: as §5

[8] = Pharmacokinetic experiment in rats (i.g. vehicle 0.5% MC); type: in vivo; conditions: Sprague-Dawley (SD), rat, po, male SD rats, plasma; for AUC(0-t): i.g. 20 mg/kg, vehicle 0.5% MC, read-out: AUC0-t; for bioavailability: i.g. 20 mg/kg (0.5% MC) vs i.v. 5 mg/kg
Protocol: as §2
Experimental animals: Male SD rats, 200-250 g, 6-8 weeks old, 6 rats/test compound. The experimental animals were purchased from CHENGDU DOSSY EXPERIMENTAL ANIMALS CO., LTD.
as §3
Sampling: Before and after the administration, 0.1 ml of blood was taken from the orbit of the rats under isoflurane anesthesia, and placed in an EDTAK2 centrifuge tube. Centrifugation was carried out at 5000 rpm at 4° C. for 10 min and the plasma was collected.
Time points for plasma collection in G1 group: 0, 5 m, 15 m, 30 m, 1 h, 2 h, 4 h, 6 h, 8 h, and 24 h.
Time points for plasma collection in G2 group: 0, 15 m, 30 m, 1 h, 2 h, 4 h, 6 h, 8 h, and 24 h.
as §4

BTK protein, sequence (P35991 whole entry): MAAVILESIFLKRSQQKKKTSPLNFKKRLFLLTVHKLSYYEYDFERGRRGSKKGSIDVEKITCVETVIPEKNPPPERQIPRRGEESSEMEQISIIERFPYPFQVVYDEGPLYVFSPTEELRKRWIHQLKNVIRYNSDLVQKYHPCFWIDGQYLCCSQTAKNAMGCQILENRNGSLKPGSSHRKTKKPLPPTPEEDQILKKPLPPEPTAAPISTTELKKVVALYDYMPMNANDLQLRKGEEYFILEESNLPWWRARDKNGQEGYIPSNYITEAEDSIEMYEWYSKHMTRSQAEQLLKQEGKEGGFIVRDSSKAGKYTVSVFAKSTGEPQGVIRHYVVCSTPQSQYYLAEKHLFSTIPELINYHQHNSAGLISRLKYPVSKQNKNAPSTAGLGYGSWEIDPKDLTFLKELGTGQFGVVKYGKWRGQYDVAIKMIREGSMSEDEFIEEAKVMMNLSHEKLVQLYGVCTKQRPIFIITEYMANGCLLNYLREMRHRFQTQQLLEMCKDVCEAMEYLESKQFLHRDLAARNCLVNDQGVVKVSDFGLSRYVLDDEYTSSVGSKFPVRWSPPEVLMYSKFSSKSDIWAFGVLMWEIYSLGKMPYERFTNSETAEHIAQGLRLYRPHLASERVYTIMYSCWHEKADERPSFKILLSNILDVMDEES

SMILES	ED50 [1] [mg/kg]	IC50 [2] [µM]	IC50 [3] [µM]	bioavailability [4] [%]	AUC(0-t) [4] [µg·h/mL]	IC50 [5] [µM]	IC50 [6] [µM]	IC50 [7] [µM]	AUC(0-t) [8] [µg·h/mL]	bioavailability [8] [%]
Nc1ncnc2c1c(-c1ccc(Oc3ccccc3)cc1)nn2[C@@H]1CCN(C2CCN(C3CN(c4ccc5c(c4)C(=O)N(C4CCC(=O)NC4=O)C5=O)C3)CC2)C[C@@H]1F (stereo partly drawn) [Compound 45, 5-(3-((3S,4R)-4-(4-amino-3-(4-phenoxyphenyl)-1H-pyrazolo[3,4-d]pyrimidin-1-yl)-3-fluoro-[1,4′-bipiperidin]-1′-yl)azetidin-1-yl)-2-(2,6-dioxopiperidin-3-yl)isoindoline-1,3-dione]	1.4	0.125	0.11	19.7 ± 8.5	3.44 ± 1.49	0.003	0.0096	0.016		
Nc1ncnc2c1c(-c1ccc(Oc3ccccc3)cc1)nn2C1CCN(C2CN(C3CN(c4ccc5c(c4)C(=O)N(C4CCC(=O)NC4=O)C5=O)C3)C2)CC1F (stereo not drawn) [Compound 19-1, trans-5-(3-(4-(4-amino-3-(4-phenoxyphenyl)-1H-pyrazolo[3,4-d]pyrimidin-1-yl)-3-fluoropiperidin-1-yl)-[1,3′-biazetidin]-1′-yl)-2-(2,6-dioxopiperidin-3-yl)isoindoline-1,3-dione]			0.394			0.023		0.014	1.26 ± 0.117	
Nc1ncnc2c1c(-c1ccc(Oc3ccccc3)cc1)nn2C1CCN(C2CN(C3CN(c4ccc5c(c4)C(=O)N([C@H]4CCC(=O)NC4=O)C5=O)C3)C2)CC1 [Compound 17-b, 5-[3-[3-[4-[4-amino-3-(4-phenoxyphenyl)pyrazolo[3,4-d]pyrimidin-1-yl]-1-piperidyl]azetidin-1-yl]azetidin-1-yl]-2-[(3S)-2,6-dioxo-3-piperidyl]isoindoline-1,3-dione]	2.2	0.662	0.46				0.0072			
Nc1ncnc2c1c(-c1ccc(Oc3ccccc3)cc1)nn2[C@@H]1CCCN(C(=O)c2cn(CCOCCOCCOCCNc3cccc4c3C(=O)N(C3CCC(=O)NC3=O)C4=O)nn2)C1 (some centres unmarked) [Compound P13I, reference compound]		1.64	1.18	0		0.029	0.844	0.104		0
Nc1ncnc2c1c(-c1ccc(Oc3ccccc3)cc1)nn2[C@@H]1CCN(C2CCN(C3CN(c4ccc5c(c4)C(=O)N(C4CCC(=O)NC4=O)C5=O)C3)CC2)C[C@H]1F (stereo partly drawn) [Compound 40, 5-(3-((3R,4R)-4-(4-amino-3-(4-phenoxyphenyl)-1H-pyrazolo[3,4-d]pyrimidin-1-yl)-3-fluoro-[1,4′-bipiperidin]-1′-yl)azetidin-1-yl)-2-(2,6-dioxopiperidin-3-yl)isoindoline-1,3-dione]	2.1	0.054	0.074	17.4 ± 4	5.42 ± 1.26	0.003	0.0073	0.012		
Nc1ncnc2c1c(-c1ccc(Oc3ccccc3)cc1)nn2C1CCN(C2CCN(C3CN(c4ccc5c(c4)C(=O)N(C4CCC(=O)NC4=O)C5=O)C3)CC2)CC1 (centres unmarked) [Compound 8, 5-(3-(4-(4-amino-3-(4-phenoxyphenyl)-1H-pyrazolo[3,4-d]pyrimidin-1-yl)-[1,4′-bipiperidin]-1′-yl)azetidin-1-yl)-2-(2,6-dioxopiperidin-3-yl)isoindoline-1,3-dione tritrifluoroacetate]		0.399	0.255			0.003	0.309	0.022	0.634 ± 0.238	11.8 ± 4.4
Nc1ncnc2c1c(-c1ccc(Oc3ccccc3)cc1)nn2C1CCN(C2CCN(C3CN(c4ccc5c(c4)C(=O)N(C4CCC(=O)NC4=O)C5=O)C3)CC2)CC1 (centres unmarked) [Compound 8-1, 5-(3-(4-(4-amino-3-(4-phenoxyphenyl)-1H-pyrazolo[3,4-d]pyrimidin-1-yl)-[1,4′-bipiperidin]-1′-yl)azetidin-1-yl)-2-(2,6-dioxopiperidin-3-yl)isoindoline-1,3-dione]	3.8									
Nc1ncnc2c1c(-c1ccc(Oc3ccccc3)cc1)nn2C1CCN(C2CN(C3CN(c4ccc5c(c4)C(=O)N([C@@H]4CCC(=O)NC4=O)C5=O)C3)C2)CC1 [Compound 17-a, 5-[3-[3-[4-[4-amino-3-(4-phenoxyphenyl)pyrazolo[3,4-d]pyrimidin-1-yl]-1-piperidyl]azetidin-1-yl]azetidin-1-yl]-2-[(3R)-2,6-dioxo-3-piperidyl]isoindoline-1,3-dione]	19.8	0.524	0.481				0.008			
Nc1ncnc2c1c(-c1ccc(Oc3ccccc3)cc1)nn2C1CCN(C2CCN(C3CN(c4ccc5c(c4)C(=O)N(C4CCC(=O)NC4=O)C5=O)C3)CC2F)CC1 (stereo not drawn) [Compound 18-1, cis-5-(3-(4-(4-amino-3-(4-phenoxyphenyl)-1H-pyrazolo[3,4-d]pyrimidin-1-yl)-3′-fluoro-[1,4′-bipiperidin]-1′-yl)azetidin-1-yl)-2-(2,6-dioxopiperidin-3-yl)isoindoline-1,3-dione]	1.9	0.029	0.02			0.004	0.018	0.008	0.218 ± 0.068	

— patent US11542266B1, “Substituted piperidines as BTK inhibitors” (HAISCO PHARMACEUTICALS PTE. LTD., priority 2019, dated 2023)
